In US10125135B2, “Chemical compounds” (AstraZeneca AB, priority 2016, dated 2018):

Experiments:
[1] = target: estrogen receptor (ERα) in MCF-7 human breast cancer cell line (Homo sapiens (Human), UniProt P03372); experiment: Western blotting assay, MCF-7 cells; format: cell-based; conditions: 100 nM compound, 48 h; normalised to vehicle (0%) and 100 nM fulvestrant (100%)
Method: The ability of compounds to down-regulate estrogen receptor (ER) was assessed by western blotting using human breast cancer cell lines (MCF-7 and CAMA-1). Cells were plated into 12-well tissue culture-treated plates at 0.5×10^6/well in phenol red-free RPMI containing 2 mM L-glutamine and 5% (v/v) charcoal treated foetal calf serum (F6765, Sigma). Cells were incubated with compounds (100 nM) or vehicle control (0.1% DMSO) for 48 h at 37° C., 5% CO2 before washing once with PBS and lysing with 80 μl lysis buffer (25 mM Tris/HCl, 3 mM EDTA, 3 mM EGTA, 50 mM NaF, 2 mM sodium orthovanadate, 0.27 M sucrose, 10 mM β-glycerophosphate, 5 mM sodium pyrophosphate, 0.5% TritonX-100, pH 6.8) on ice.
Cells were scraped, sonicated and centrifuged prior to performing a protein assay (DC Bio-Rad Protein kit, 500-0116) and making samples to a protein concentration of 1-2 mg/m1 in lysis buffer containing 1× LDS Sample Buffer (NP0007, Invitrogen) and 1× NuPAGE sample reducing agent (NP0009, Invitrogen). Samples were boiled for 10 min at 95° C. and then frozen at −20° C. until ready for use.
10-20 μg protein was loaded onto 26-well Criterion gels (BioRad 345-0034). Gels were run at 125 V for 1 hr 25 min in running buffer (24 mM Tris Base Sigma, 192 mM Glycine, 3.5 mM SDS, made up in distilled water). Gels were then transferred at 30V for 2 hr in transfer buffer (25 mM Tris, 192 mM Glycine, 20% (v/v) methanol, pH 8.3, made up in distilled water) onto nitrocellulose membrane. The blot was stained with Ponceau S (P7170, Sigma) and cut according to appropriate molecular weight markers.
Membranes were blocked for 1 hour at room temp in 5% Marvel (w/v) in phosphate-buffered saline containing 0.05% Tween™ 20 (PBS/Tween). Blots were then incubated with anti-ERα (SP1) rabbit monoclonal antibody (Thermofisher) diluted 1:1000 at 4° C. overnight (with gentle shaking) followed by several washes with PBS/Tween. Secondary anti-rabbit HRP antibody (7074, CST) diluted 1:2000 dilution was incubated for 2 h at room temperature (with gentle shaking) followed by several washes with PBS/Tween. All antibodies were made up in 5% Marvel (w/v) in PBS/Tween.
The immunoblots were developed using Pierce WestDura chemiluminescent reagents (Thermo Scientific 34076) and developed/quantified on the G-box using Syngene software. Down-regulation of the ERα receptor was normalised to the vehicle control (0% down-regulation) and the 100 nM fulvestrant control (100% down-regulation) run within the same gel.

[2] = Human hepatocyte assay (metabolic stability); format: in vitro ADME; conditions: human hepatocytes, 37° C., 1.0×10^6 viable cells/mL; read-out: Clint (in vitro intrinsic clearance)
Method: The metabolic stability of compounds in human hepatocytes was assessed using the following protocol: • 1. Prepare 10 mM stock solutions of compound and control compounds in appropriate solvent (DMSO). Place incubation medium (L-15Medium) in a 37° C. water bath, and allow warming for at least 15 minutes prior to use. • 2. Add 80 μL of acetonitrile to each well of the 96-well deep well plate (quenching plate). • 3. In a new 96-well plate, dilute the 10 mM test compounds and the control compounds to 100 μM by combining 198 μL of acetonitrile and 2 μL of 10 mM stock. • 4. Remove a vial of cryopreserved (less than −150° C.) human hepatocytes (LiverPool™ 10 Donor Human hepatocytes obtained from Celsis IVT. Chicago, Ill. (Product No. S01205)) from storage, ensuring that vials remain at cryogenic temperatures until thawing process ensues. As quickly as possible, thaw the cells by placing the vial in a 37° C. water bath and gently shaking the vials. Vials should remain in water bath until all ice crystals have dissolved and are no longer visible. After thawing is completed, spray vial with 70% ethanol, transfer the vial to a bio-safety cabinet. • 5. Open the vial and pour the contents into the 50 mL conical tube containing thawing medium. Place the 50 mL conical tube into a centrifuge and spin at 100 g for 10 minutes. […] Using Cellometer® Vision, count cells and determine the viable cell density. Cells with poor viability (<80% viability) are not acceptable for use. Dilute cells with incubation medium to a working cell density of 1.0×10^6 viable cells/mL. • 7. Transfer 247.5 μL of hepatocytes into each well of a 96-well cell culture plate. Place the plate on Eppendorf Thermomixer Comfort plate shaker to allow the hepatocytes to warm for 10 minutes. • 8. Add 2.5 μL of 100 μM test compound or control compounds into an incubation well containing cells, mix to achieve a homogenous suspension at 0.5 min, which when achieved, will define the 0.5 min time point. At the 0.5 min time, transfer 20 μL incubated mixture to wells in a “Quenching plate” followed by vortexing. • 9. Incubate the plate at 37° C. at 900 rpm on an Eppendorf Thermomixer Comfort plate shaker. At 5, 15, 30, 45, 60, 80, 100 and 120 min, mix the incubation system and transfer samples of 20 μL incubated mixture at each time point to wells in a separate “Quenching plate” followed by vortexing. • 10. Centrifuge the quenching plates for 20 minutes at 4,000 rpm. 4 different compounds are pooled into one cassette and used for LC/MS/MS analysis.
All calculations are carried out using Microsoft Excel. Peak areas are determined from extracted ion chromatograms. In vitro intrinsic clearance (in vitro Clint, in μL/min/10^6 cells) of parent compound is determined by regression analysis of the Ln percent parent disappearance vs. time curve. The in vitro intrinsic clearance (in vitro Clint, in μL/min/10^6 cells) is determined from the slope value using the following equation and is shown in Table C:
V=incubation volume (0.25 mL);
N=number of hepatocytes per well (0.25×10 ^6 cells).

Sequence of estrogen receptor (ERα) in MCF-7 human breast cancer cell line (P03372 whole entry): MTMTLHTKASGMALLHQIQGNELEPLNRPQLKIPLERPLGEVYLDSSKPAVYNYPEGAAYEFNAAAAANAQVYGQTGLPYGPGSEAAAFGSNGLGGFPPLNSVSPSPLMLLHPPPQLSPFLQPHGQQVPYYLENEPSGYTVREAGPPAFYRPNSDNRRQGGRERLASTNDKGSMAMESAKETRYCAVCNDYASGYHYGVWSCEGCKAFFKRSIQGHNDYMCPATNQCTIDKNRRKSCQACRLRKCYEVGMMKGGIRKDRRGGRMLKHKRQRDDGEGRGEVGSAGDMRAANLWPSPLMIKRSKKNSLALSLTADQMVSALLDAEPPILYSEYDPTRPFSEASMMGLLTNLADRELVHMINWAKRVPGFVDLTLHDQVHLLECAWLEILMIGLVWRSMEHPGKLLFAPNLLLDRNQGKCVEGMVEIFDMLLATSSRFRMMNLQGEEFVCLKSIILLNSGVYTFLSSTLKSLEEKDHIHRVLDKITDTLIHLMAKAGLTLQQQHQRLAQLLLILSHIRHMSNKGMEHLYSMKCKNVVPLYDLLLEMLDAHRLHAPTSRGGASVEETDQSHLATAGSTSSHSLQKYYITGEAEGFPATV

Row | Structure (SMILES) | MCF7 Western % ER deg vs Fv [1] [%] | hepatocyte CLint at 1 µM [2] [µL/min/1e6 cells]
1 | C[C@@H]1Cc2c(ccc3[nH]ncc23)[C@@H](c2ccc(OCCN3CC(CF)C3)cn2)N1CC(F)(F)F [Example 49, (6S,8R)-6-(5-(2-(3-(fluoromethyl)azetidin-1-yl)ethoxy)pyridin-2-yl)-8-methyl-7-(2,2,2-trifluoroethyl)-6,7,8,9-tetrahydro-3H-pyrazolo[4,3-f]isoquinoline] | 98 | 3
2 | COc1cc(OCCN2CC(CF)C2)ccc1[C@@H]1c2ccc3[nH]ncc3c2C[C@@H](C)N1CC1(F)CC1 [Example 6, (6S,8R)-7-((1-fluorocyclopropyl)methyl)-6-(4-(2-(3-(fluoromethyl)azetidin-1-yl)ethoxy)-2-methoxyphenyl)-8-methyl-6,7,8,9-tetrahydro-3H-pyrazolo[4,3-f]isoquinoline] | 77 | 7
3 | COc1cc(OCCN2CC(CF)C2)ccc1[C@@H]1c2ccc3[nH]ncc3c2C[C@@H](C)N1CC(C)C [Example 9, (6S,8R)-6-(4-(2-(3-(fluoromethyl)azetidin-1-yl)ethoxy)-2-methoxyphenyl)-7-isobutyl-8-methyl-6,7,8,9-tetrahydro-3H-pyrazolo[4,3-f]isoquinoline] | 97 | 3
4 | C[C@@H]1Cc2c(ccc3[nH]ncc23)[C@@H](c2ccc(OCCN3CC(CF)C3)cn2)N1CC1(F)CC1 [Example 8, (6S,8R)-7-((1-fluorocyclopropyl)methyl)-6-(5-(2-(3-(fluoromethyl)azetidin-1-yl)ethoxy)pyridin-2-yl)-8-methyl-6,7,8,9-tetrahydro-3H-pyrazolo[4,3-f]isoquinoline] | 80 | 8
5 | C[C@@H]1Cc2c(ccc3[nH]ncc23)[C@@H](c2ccc(OCCN3CC(CF)C3)cn2)N1CC(F)F [Example 51, (6S,8R)-7-(2,2-difluoroethyl)-6-(5-(2-(3-(fluoromethyl)azetidin-1-yl)ethoxy)pyridin-2-yl)-8-methyl-6,7,8,9-tetrahydro-3H-pyrazolo[4,3-f]isoquinoline] | 97 | 5
6 | COc1cc(OCCN2CC(CF)C2)ccc1[C@@H]1c2ccc3[nH]ncc3c2C[C@@H](C)N1CC(C)(C)F [Example 5, (6S,8R)-7-(2-fluoro-2-methylpropyl)-6-(4-(2-(3-(fluoromethyl)azetidin-1-yl)ethoxy)-2-methoxyphenyl)-8-methyl-6,7,8,9-tetrahydro-3H-pyrazolo[4,3-f]isoquinoline] | 69 | 12
